How the values were obtained:
Assay type in all cases: in vivo, human
SARS-CoV-2 [1] = experiment: Inhalation of the smelling salt by patients during the COVID-19 pandemic; conditions: liquid CBD added
Procedure: In another formula, in addition to the herbal infused alcohols and concentrated herbal extracts, liquid CBD was also added. […] Apparently, CBD has synergistic effect with the probiotic produced volatile therapeutic compounds. Towards the end of preparation, the multiple strain probiotics along with their bio-active peptides and volatile therapeutic growth end products were add to the formula. The above prepared formulas were placed in a plastic or glass container with a tight closure or in a cartridge with screw type closure. Prior to inhalation, the cap is removed and, using one nostril at a time, it is inhaled deeply to reach the bottom of each and every alveoli of the lung. Conversely, the composition can also be applied using a standard nebulizer with proper liquefaction of the ingredients using a suitable solvent such as water.
The preparation was tried on patients of all age groups and genders ranging from 5 years to 75 years. They were asked to inhale once in the morning and once in the evening if they are at home or office. If they have to go to public places or a crowded place, they were asked to inhale before and after visiting the place. […]
In addition to the ingredients listed in Table 3, further testing evaluated the addition of a minimal amount of ammonium carbonate. In another composition, sodium hypochlorite has been replaced by a minimal quantity of liquid chloroform. […]

SARS-CoV-2 [2] = experiment: Nasal irrigation with the Example 1 composition in people during the COVID-19 pandemic, judged by symptoms; conditions: added to the Example 1 composition
SARS-CoV-2 [3] = experiment: Oral probiotics liposome in test subjects and COVID-19 patients; conditions: acute cases of COVID-19
Source text: Recommended daily dosages for the above prepared liquid antioxidant liposome are one dose of 1 ounce or two doses of one-half ounce each. This preparation was given to several test subjects of all ages who were monitored for coronavirus infection over a period of 5.5 months during the coronavirus pandemic period (February through middle of August 2020). […] In addition, the above preparation was given to a patient who had been infected with COVID-19. This patient recovered quickly, within one to two weeks.
The liposome also was evaluated with variations of ingredients to identify which appeared to provide the better effectiveness. The standard for comparison had the liposome prepared with, herbal extracts, CBD, ascorbic acid, sodium bicarbonate, and sodium ascorbate. However, the probiotics were not included. A first test version had the liposome prepared with ascorbic acid and herbal extracts only, without sodium ascorbate, sodium bicarbonate, CBD, and probiotics. A second test version had the liposome prepared with concentrated herbal extracts of clove, turmeric, and basil in combination with ascorbic acid and sodium ascorbate along with multiple probiotics strain, but without inclusion of their all other immunomodulins and growth end products. […]

SMILES: C=C(C)[C@@H]1CCC(C)=C[C@H]1c1c(O)cc(CCCCC)cc1O [CBD, Cannabidiol]
- effect of addition on efficacy of the inhaling smelling salt (SARS-CoV-2 [1]): significantly improved the efficacy
- effect of inclusion in the nasal irrigation formulation (SARS-CoV-2 [2]): significantly improved the nasal clearance
- effect of CBD in the liposome on recovery (SARS-CoV-2 [3]): significantly improved the recovery

— patent US11077052B1, “Selected multi-phase treatment for coronavirus respiratory infections” (priority 2020, dated 2021)
